The results in this text go back to patent US20250092065A1, “2-(INDAZOL-5-YL)-6-(PIPERIDIN-4-YL)-1,7-NAPHTHYRIDINE DERIVATIVES AND RELATED COMPOUNDS AS MODULATORS FOR SPLICING NUCLEIC ACIDS AND FOR THE TREATMENT OF PROLIFERATIVE DISEASES” (REMIX THERAPEUTICS INC., priority 2022, published 2025).

pIC50: −log10 of the molar value. Counter-ions that a name gives are not always drawn.

Assay [1] relates to Target C. As to the kind of experiment: RT-qPCR canonical junction panel assay, Target C mRNA. The class given is cell-based. Particulars: Table 4, read-out: Target C IC50 (decrease in CJ mRNA levels). In outline: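 IC50 is the concentration giving 50% CJ decrease, from a 4-parameter logistic fit of percent response; response derived from ΔΔCt against housekeeper and DMSO over a fixed ΔCt window, with canonical exon-junction qPCR in compound-treated K562 or A673 cells.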
A general note: Real-time PCR tracks product formation cycle by cycle.

The test system of assay [2] is SMN2 mRNA. As to the kind of experiment: RT-qPCR splicing assay, SMN2 mRNA. The class given is cell-based, human. Particulars: Homo sapiens, canonical junction qPCR panel, Table 4; read-out: SMN2 IC50 (decrease in CJ mRNA levels). In short, it runs like this:
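Canonical and alternative-exon junction isoforms were quantified by RT-qPCR in cell lysates, with ΔCt against a housekeeper (GAPDH/GUSB/PPIA), then ΔΔCt vs DMSO, converted to 2^(−ΔΔCt) and percent response. K562 or A673 cells were exposed for 24 h to 11 concentrations (3-fold, top final 10 uM).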

A word on the pIC50: it is the IC50 on a negative log10 scale, so that one unit is a factor of ten.

For `Cc1nc2c(C)c(O)c(-c3ccc4cc(N5CC[C@H](NC6CC6)C5)ncc4n3)cc2o1` [Compound 441, 6-{6-[(3S)-3-(cyclopropylamino)pyrrolidin-1-yl]-1,7-naphthyridin-2-yl}-2,4-dimethyl-1,3-benzoxazol-5-ol], the pIC50 in assay [1] was 6.00 to 7.00; in assay [2], greater than 7.00.

On to `Cn1cc2cc(-c3ccc4nc(C5CCNC6(CC6)C5)ncc4n3)c(O)cc2n1` (centres unmarked) [Compound 448, 5-(2-{4-azaspiro[2.5]octan-7-yl}pyrido[3,2-d]pyrimidin-6-yl)-2-methylindazol-6-ol], for which the pIC50 in assay [1] is 5.00 to 6.00; in assay [2], greater than 7.00.

In the case of `Cn1cc2cc(-c3ccc4cc(N5CCC(NC(C)(C)C)C5)ncc4n3)c(O)cc2n1` (centres unmarked) [Compound 449, 5-{6-[3-(tert-butylamino)pyrrolidin-1-yl]-1,7-naphthyridin-2-yl}-2-methylindazol-6-ol], the pIC50 in assay [1] was 5.00 to 6.00; in assay [2] it was greater than 7.00.

Consider `Cc1nc2cc(O)c(-c3ccc4cc(N5CC[C@H](NC(C)(C)C)C5)ncc4n3)cc2o1` [Compound 450], for which the negative-log IC50 (pIC50) in assay [1] and in assay [2] was 5.00 to 6.00 in each case.

As to `Cc1c(O)c(-c2cc(Cl)c3cc(N4CCNCC4)cc(C)c3n2)cc2cn(C)nc12` [Compound 482, 5-[4-chloro-8-methyl-6-(piperazin-1-yl)577yrrolidi-2-yl]-2,7-dimethylindazol-6-ol hydrochloride], the pIC50 in assay [1] was 5.00 to 6.00; in assay [2] it was greater than 7.00.

`Cc1cc2nc(-c3cc4cn(C)nc4c(C)c3O)cc(Cl)c2cc1N1CCNCC1` [Compound 484, 5-[4-chloro-7-methyl-6-(piperazin-1-yl)586yrrolidi-2-yl]-2,7-dimethylindazol-6-ol]: the pIC50 in assay [1] is 5.00 to 6.00; in assay [2], greater than 7.00.

Consider `CNC1CCN(c2cc3c(Cl)cc(-c4cc5cn(C)nc5c(C)c4O)nc3cc2C)C1` (centres unmarked) [Compound 486, 5-{4-chloro-7-methyl-6-[3-(methylamino)pyrrolidin-1-yl]quinolin-2-yl}-2,7-dimethylindazol-6-ol], for which the pIC50 in assay [1] was 5.00 to 6.00; in assay [2], greater than 7.00.
